pEC50, pIC50: −log10 of the molar value. Converted amounts (≈) assume the structure as drawn. Where two headings read alike, the source gives them in different places.
Key:
[1] = test system: P. aeruginosa CDC-0095; assay: microbe, parasite or virus in culture; assay type: cell-based; details: Pseudomonas aeruginosa, CDC0095, read-out: Minimum inhibitory concentration, P. aeruginosa CDC-0095
[2] = molecular target: T1, PBP3 from Escherichia coli (K-12) (Escherichia coli, UniProt P0AD68); assay: Bocillin-FL fluorescence polarization competition binding, E. coli PBP3
T1 construct: made in house
Summary of the method: (§1)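 Purified PBP was preincubated with inhibitor (E. coli PBP3 1.5 μM, 30 min; P. aeruginosa PBP3 0.75 μM, A. baumannii PBP3 0.2 μM and PBP1a 1 μM, 15 min), then Bocillin-FL (0.1 μM; 0.05 μM for PBP1a) added and FP read up to 60 min. EC50 = 50% loss of bound probe.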

[3] = test system: N. gonorrhoeae WHO M; assay: Liquid broth MIC in Fastidious broth; details: Neisseria gonorrhoeae
[4] = molecular target: T2, PBP3 from Pseudomonas aeruginosa (PAO1) (Pseudomonas aeruginosa, UniProt G3XD46); assay: Bocillin-FL fluorescence polarization competition binding, P. aeruginosa PBP3; details: Binding affinity to P. aeruginosa PBP3; fluorescence polarization competition binding assay using Bocillin-FL; read-out: P. aeruginosa PBP3 Potency
T2 construct: made in house
Summary of the method: as §1

[5] = test system: P. aeruginosa CDC-0054; assay: microbe, parasite or virus in culture; assay type: cell-based; details: Pseudomonas aeruginosa, CDC0054, read-out: Minimum inhibitory concentration, P. aeruginosa CDC-0054
[6] = test system: A. baumannii CDC-0033; assay: microbe, parasite or virus in culture; assay type: cell-based; details: Acinetobacter baumannii, CDC0033, read-out: MIC, A. baumannii CDC-0033
[7] = test system: N. gonorrhoeae ATCC 49226; assay: Liquid broth MIC in Fastidious broth; details: Neisseria gonorrhoeae
[8] = test system: N. gonorrhoeae WHO Z; assay: Liquid broth MIC in Fastidious broth; details: Neisseria gonorrhoeae
[9] = test system: N. gonorrhoeae WHO G; assay: Liquid broth MIC in Fastidious broth; details: Neisseria gonorrhoeae
[10] = test system: N. gonorrhoeae WHO K; assay: Liquid broth MIC in Fastidious broth; details: Neisseria gonorrhoeae
[11] = test system: N. gonorrhoeae FA1090; assay: Liquid broth MIC in Fastidious broth; details: Neisseria gonorrhoeae
[12] = test system: N. gonorrhoeae MS11; assay: Liquid broth MIC in Fastidious broth; details: Neisseria gonorrhoeae
[13] = read-out: Minimum Inhibitory Concentration (MIC), N. gonorrhoeae WHO M
[14] = ATCC49226, read-out: Minimum Inhibitory Concentration (MIC), N. gonorrhoeae ATCC 49226
[15] = read-out: Minimum Inhibitory Concentration (MIC), N. gonorrhoeae WHO Z
[16] = read-out: Minimum Inhibitory Concentration (MIC), N. gonorrhoeae WHO G
[17] = read-out: Minimum Inhibitory Concentration (MIC), N. gonorrhoeae WHO K
[18] = FA1090, read-out: Minimum Inhibitory Concentration (MIC), N. gonorrhoeae FA 1090
[19] = MS11, read-out: Minimum Inhibitory Concentration (MIC), N. gonorrhoeae MS11

T1 sequence (P0AD68 1-577): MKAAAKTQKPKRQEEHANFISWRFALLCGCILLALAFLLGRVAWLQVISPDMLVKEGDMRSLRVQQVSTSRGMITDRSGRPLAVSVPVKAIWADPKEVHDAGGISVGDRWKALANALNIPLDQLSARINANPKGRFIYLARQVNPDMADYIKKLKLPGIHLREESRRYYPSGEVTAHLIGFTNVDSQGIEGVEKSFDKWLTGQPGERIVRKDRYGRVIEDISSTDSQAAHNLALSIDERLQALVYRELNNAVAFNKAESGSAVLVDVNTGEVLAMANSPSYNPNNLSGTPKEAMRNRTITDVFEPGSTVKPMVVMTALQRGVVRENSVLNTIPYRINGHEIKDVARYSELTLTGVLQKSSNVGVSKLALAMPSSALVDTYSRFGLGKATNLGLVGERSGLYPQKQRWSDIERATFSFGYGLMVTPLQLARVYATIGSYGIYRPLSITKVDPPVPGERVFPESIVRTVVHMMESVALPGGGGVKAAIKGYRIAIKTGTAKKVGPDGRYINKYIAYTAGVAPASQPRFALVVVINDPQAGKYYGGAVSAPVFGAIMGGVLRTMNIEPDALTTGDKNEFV
T2 sequence (G3XD46 whole entry): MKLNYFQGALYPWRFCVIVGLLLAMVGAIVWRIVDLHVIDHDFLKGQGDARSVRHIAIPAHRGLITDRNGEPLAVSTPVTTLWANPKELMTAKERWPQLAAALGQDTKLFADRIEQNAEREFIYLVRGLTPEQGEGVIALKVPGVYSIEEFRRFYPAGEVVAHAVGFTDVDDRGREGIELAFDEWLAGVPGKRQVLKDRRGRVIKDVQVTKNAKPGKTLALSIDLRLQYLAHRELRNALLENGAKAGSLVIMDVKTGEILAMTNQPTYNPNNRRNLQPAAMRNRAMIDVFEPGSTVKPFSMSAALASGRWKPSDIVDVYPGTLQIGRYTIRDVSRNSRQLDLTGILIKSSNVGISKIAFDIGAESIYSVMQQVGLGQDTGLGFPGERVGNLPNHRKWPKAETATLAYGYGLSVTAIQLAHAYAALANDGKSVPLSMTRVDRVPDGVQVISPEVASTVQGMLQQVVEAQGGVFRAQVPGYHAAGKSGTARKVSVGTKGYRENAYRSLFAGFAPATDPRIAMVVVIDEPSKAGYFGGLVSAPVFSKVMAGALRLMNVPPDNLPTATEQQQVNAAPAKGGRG

SMILES | MIC [1] | pEC50 [2] | MIC ([3]; read-out: Minimum Inhibitory Concentration, WHO M) | pIC50 [4] | MIC [5] | MIC [6] | MIC ([7]; ATCC49226, read-out: Minimum Inhibitory Concentration, ATCC 49226) | MIC ([8]; read-out: Minimum Inhibitory Concentration, WHO Z) | MIC ([9]; read-out: Minimum Inhibitory Concentration, WHO G) | MIC ([10]; read-out: Minimum Inhibitory Concentration, WHO K) | MIC ([11]; FA1090, read-out: Minimum Inhibitory Concentration, FA 1090) | MIC ([12]; MS11, read-out: Minimum Inhibitory Concentration, MS11) | MIC [3, 13] | MIC [7, 14] | MIC [8, 15] | MIC [9, 16] | MIC [10, 17] | MIC [11, 18] | MIC [12, 19]
O=C(NCCCS(=O)(=O)N1CCN(C(=O)NC(C(=O)N[C@H]2Cc3ccc(F)c(C(=O)O)c3OB2O)c2cc(F)c(O)c(O)c2Cl)C1=O)Nc1ccc(O)cc1 (stereo partly drawn) [Example 276, (3R)-3-(2-(2-chloro-5-fluoro-3,4-dihydroxyphenyl)-2-(3-((3-(3-(4-hydroxyphenyl)ureido)propyl)sulfonyl)-2-oxoimidazolidine-1-carboxamido)acetamido)-7-fluoro-2-hydroxy-3,4-dihydro-2H-benzo[e][1,2]oxaborinine-8-carboxylic acid] | 8 to 16 µg/mL (≈ 9.87 to 19.7 µM) | > 5.00 | 4 to 8 µg/mL (≈ 4.93 to 9.87 µM) | > 5.00 | 8 to 16 µg/mL (≈ 9.87 to 19.7 µM) | 8 to 16 µg/mL (≈ 9.87 to 19.7 µM) | 16 to 32 µg/mL (≈ 19.7 to 39.5 µM) | 4 to 8 µg/mL (≈ 4.93 to 9.87 µM) | 16 to 32 µg/mL (≈ 19.7 to 39.5 µM) | > 64 µg/mL | 1 to 2 µg/mL (≈ 1.23 to 2.47 µM) | 16 to 32 µg/mL (≈ 19.7 to 39.5 µM) |  |  |  |  |  |  | 
CN(CCN1CCN(C(=O)N[C@@H](C(=O)N[C@H]2Cc3ccc(F)c(C(=O)O)c3OB2O)c2cc(F)c(O)c(O)c2Cl)C(=O)C1=O)Cc1ccc(N)nc1 [Example 209, (R)-3-((R)-2-(4-(2-(((6-aminopyridin-3-yl)methyl)(methyl)amino)ethyl)-2,3-dioxopiperazine-1-carboxamido)-2-(2-chloro-5-fluoro-3,4-dihydroxyphenyl)acetamido)-7-fluoro-2-hydroxy-3,4-dihydro-2H-benzo[e][1,2]oxaborinine-8-carboxylic acid] | < 1 µg/mL | > 5.00 |  |  | 2 to 4 µg/mL (≈ 2.68 to 5.36 µM) | 2 to 4 µg/mL (≈ 2.68 to 5.36 µM) |  |  |  |  |  |  | 4 to 8 µg/mL (≈ 5.36 to 10.7 µM) | 4 to 8 µg/mL (≈ 5.36 to 10.7 µM) | 16 to 32 µg/mL (≈ 21.5 to 42.9 µM) | 4 to 8 µg/mL (≈ 5.36 to 10.7 µM) | > 64 µg/mL | 1 to 2 µg/mL (≈ 1.34 to 2.68 µM) | 4 to 8 µg/mL (≈ 5.36 to 10.7 µM)
O=C(NCCCN1CCN(C(=O)NC(C(=O)N[C@H]2Cc3ccc(F)c(C(=O)O)c3OB2O)c2cc(F)c(O)c(O)c2Cl)C(=O)C1=O)c1nccs1 (stereo partly drawn) [Example 211, (3R)-3-(2-(2-chloro-5-fluoro-3,4-dihydroxyphenyl)-2-(2,3-dioxo-4-(3-(thiazole-2-carboxamido)propyl)piperazine-1-carboxamido)acetamido)-7-fluoro-2-hydroxy-3,4-dihydro-2H-benzo[e][1,2]oxaborinine-8-carboxylic acid] | 2 to 4 µg/mL (≈ 2.66 to 5.33 µM) | > 5.00 |  |  | 2 to 4 µg/mL (≈ 2.66 to 5.33 µM) | 2 to 4 µg/mL (≈ 2.66 to 5.33 µM) |  |  |  |  |  |  | 16 to 32 µg/mL (≈ 21.3 to 42.6 µM) | 16 to 32 µg/mL (≈ 21.3 to 42.6 µM) | 16 to 32 µg/mL (≈ 21.3 to 42.6 µM) | 16 to 32 µg/mL (≈ 21.3 to 42.6 µM) | > 64 µg/mL | 1 to 2 µg/mL (≈ 1.33 to 2.66 µM) | 16 to 32 µg/mL (≈ 21.3 to 42.6 µM)
O=C(O)c1cccc2c1OB(O)[C@@H](NC(=O)[C@H](NC(=O)c1cnc3n(c1=O)CCS3)c1ccc(P(=O)(O)O)cc1)C2 (single isomer, unassigned) [Example 197] |  | 4.30 to 5.00 |  | > 5.00 |  |  |  |  |  |  |  |  | 4 to 8 µg/mL (≈ 6.66 to 13.3 µM) | 16 to 32 µg/mL (≈ 26.7 to 53.3 µM) | 16 to 32 µg/mL (≈ 26.7 to 53.3 µM) | 4 to 8 µg/mL (≈ 6.66 to 13.3 µM) | 16 to 32 µg/mL (≈ 26.7 to 53.3 µM) | 1 to 2 µg/mL (≈ 1.67 to 3.33 µM) | 16 to 32 µg/mL (≈ 26.7 to 53.3 µM)
O=C(O)c1c(F)ccc2c1OB(O)[C@@H](NC(=O)C(NC(=O)N1CCN(CCCNC(=O)[C@@H]3CCCN3)C(=O)C1=O)c1cc(F)c(O)c(O)c1Cl)C2 (stereo partly drawn) [Example 212, (3R)-3-(2-(2-chloro-5-fluoro-3,4-dihydroxyphenyl)-2-(2,3-dioxo-4-(3-((S)-pyrrolidine-2-carboxamido)propyl)piperazine-1-carboxamido)acetamido)-7-fluoro-2-hydroxy-3,4-dihydro-2H-benzo[e][1,2]oxaborinine-8-carboxylic acid] | 2 to 4 µg/mL (≈ 2.71 to 5.43 µM) | 4.30 to 5.00 |  |  | 8 to 16 µg/mL (≈ 10.9 to 21.7 µM) | 8 to 16 µg/mL (≈ 10.9 to 21.7 µM) |  |  |  |  |  |  | 16 to 32 µg/mL (≈ 21.7 to 43.4 µM) | 16 to 32 µg/mL (≈ 21.7 to 43.4 µM) | > 64 µg/mL | 16 to 32 µg/mL (≈ 21.7 to 43.4 µM) | > 64 µg/mL | 4 to 8 µg/mL (≈ 5.43 to 10.9 µM) | 16 to 32 µg/mL (≈ 21.7 to 43.4 µM)
